This is an account of results in PMC5648763, “Novel cycloneolignans from Vernicia fordii with inhibitory effects on over-activation of BV2 cells in vitro” (Scientific Reports, 2017).

Holding throughout (format): cell-based, murine
Data set [1] has as its system IL-6 mRNA expression in BV2 cells. In words: LPS-induced IL-6 mRNA expression in BV-2 cells (Real-time PCR). Particulars: 10 μM, pretreated 2 h, then LPS (100 ng/mL) 4 h, qRT-PCR. How it is done:
(§1) Figure 7 Effects of compounds 1, 1a, 1b, 2, 2a and 2b on LPS-induced IL-6 and IL-1β mRNA expression in microglial cells. BV-2 microglial cells were pretreated with compounds1, 2, 1a, 1b, 2a and 2b (10 μM) for 2 h and then stimulated with LPS (100 ng/mL). Total RNA was isolated 4 h after LPS treatment, the mRNA levels of IL-6 and IL-1β were measured by qRT-PCR. Data are expressed as means ± SEM (n = 3). ^#P < 0.05 compared with the control group, *P < 0.05 compared with LPS group. Mino stands for minocycline.
(§2) The murine microglial cell line BV-2 was from Shanghai Institutes for Biological Sciences, Chinese Academy of Sciences (kindly provided by Prof. Y.Q. Guo, Nankai University, China). BV-2 cells were grown (37 °C and 5% CO2) in DMEM supplemented with 10% FBS, 100 U/ml penicillin and 100 μ g/ml streptomycin. Stock cells were passaged about three times/week and used within 8 passages.
(§3) BV2 cells (4 × 10^5 cells/ml) were plated into 6-well plates and were pretreated with each sample for 2 h and then induced by LPS for 4 h. After that the total RNA was isolated using Trizol and converted to cDNA. CFX ConnectTM real-time PCR detection system (Bio-Rad, Hercules, CA, USA) was used for the experiment. The level of GAPDH gene was used for standardization.
(In general: In qPCR the cycle at which signal appears reflects the starting amount.)

Data set [2] concerns NO production in LPS-induced BV2 cells. Briefly: Nitrite assay (Griess reaction): NO production in LPS-induced BV2 cells. The note with it: Mus musculus, BV-2, LPS (100 ng/ml)-activated BV2 cells, 24 h, read-out: Inhibitory effect IC50 on NO production (compounds). How it is done:
(§4) Figure 5 Effect of compounds 1 and 2 on LPS-induced NO production in microglial cells. (A) BV-2 cells were treated with compounds 1 and 2 in the presence of LPS (100 ng/ml) for 24 h at the indicated concentrations. Cell viability was detected by MTT assay. (B) BV-2 cells were treated with compounds 1 and 2 in the presence of LPS (100 ng/ml) for 24 h. NO production was tested by Griess reaction. Data are expressed as means ± SEM (n = 3). ^#P < 0.05 compared with the control group, *P < 0.05 compared with LPS group.
as §2
The production of NO in LPS-induced BV2 cells was assayed by Griess reaction[9]–[12]. The cells (2 × 10^4 cells/well) were plated into 96-well plates and incubated with tested samples with 100 ng/mL LPS. Twenty-four hours later, Griess reagent was added into the supernatant at room temperature. And the plates were read on a plate reader at 540 nm after fifteen minutes.
On the technique in general: The Griess reaction detects nitrite, a stable product of nitric oxide.

Data set [3] relates to BV2 cells. In words: Cell viability / cytotoxicity by MTT method. How it is done:
as §4, §2
(§5) Viability of BV2 cells was tested by MTT method described in our previous work[9]–[12]. The cells (2 × 10^4 cells / well) were plated into 96-well plates and were pretreated with tested samples at different concentrations for 24 h. After the supernatant taken away, MTT (0.25 mg/ml) was added into the plate and incubated for 4 h at 37 °C. Finally, the formazan crystals were dissolved in DMSO and the absorbance of each well was recorded at 490 nm using a plate reader (Bio-Tek, Winooski, VT, USA).
(Tetrazolium assays rely on reduction of a dye to a coloured formazan, in cell work by metabolically active cells.)

A short description of data set [4]: Cell viability / cytotoxicity by MTT method. The note with it: mouse. How it is done: as §4, §2, §5
The subject of data set [5] is IL-1β mRNA expression in BV2 cells. In words: LPS-induced IL-1β mRNA expression in BV-2 cells (Real-time PCR). Particulars: 10 μM, pretreated 2 h, then LPS (100 ng/mL) 4 h, qRT-PCR. How it is done: as §1, §2, §3

As usually defined, the IC50 is the concentration needed to halve the response being measured. As for `Oc1ccc(C2C3COC2(O)CC(O)c2cc(O)c(O)cc23)cc1O` (stereo not shown) [Compound 1, Verniciasin A], in data set [1], the “Effect on LPS-induced IL-6 mRNA expression” value is given as “suppressed”. Also, the concentration for half-maximal inhibition (IC50) in data set [2] worked out at 1.46 ± 0.91 µM. For the same compound, the “Cytotoxicity at the effective concentrations” value in data set [3] is given as “without obvious cytotoxicities”. In data set [4], this compound returned an IC50 at 24 h of over 100 µM. Besides, the “Effect on LPS-induced IL-1β mRNA expression” value in data set [5] was “suppressed”.

As for `COC1CC2(O)OCC(c3cc(O)c(O)cc31)C2c1ccc(O)c(O)c1` (stereo not shown) [Compound 2a, 7R, 8R, 7′R, 9′S−7′-methoxylverniciasin A], in data set [1], the “Effect on LPS-induced IL-6 mRNA expression” value is on record as “moderate inhibitory effect”. Further, in data set [5], the “Effect on LPS-induced IL-1β mRNA expression” value is given as “moderate inhibitory effect”.

As to `COC1CC2(O)OCC(c3cc(O)c(O)cc31)C2c1ccc(O)c(O)c1` (racemic) [Compound 2, (±) methoxylverniciasin A], in data set [1], the “Effect on LPS-induced IL-6 mRNA expression” value was “did not show inhibitory effect”. For the same compound, the IC50 in data set [2] is 17.4 ± 0.87 µM. The “Cytotoxicity at the effective concentrations” value in data set [3] is recorded as “without obvious cytotoxicities”. Moreover, in data set [4], the IC50 at 24 h is over 100 µM. In addition, the “Effect on LPS-induced IL-1β mRNA expression” value in data set [5] is recorded as “did not show inhibitory effect”.

Regarding `Oc1ccc(C2C3COC2(O)CC(O)c2cc(O)c(O)cc23)cc1O` (stereo not shown) [Compound 1a, 7R, 8R, 7′R, 9′S-verniciasin A], the “Effect on LPS-induced IL-6 mRNA expression” value in data set [1] is “significant inhibitory action”. For the same compound, the “Effect on LPS-induced IL-1β mRNA expression” value in data set [5] was “significant inhibitory action”.

With `Oc1ccc(C2C3COC2(O)CC(O)c2cc(O)c(O)cc23)cc1O` (stereo not shown) [Compound 1b, 7S, 8S, 7′S, 9′R- verniciasin A], in data set [1], the “Effect on LPS-induced IL-6 mRNA expression” value is “did not display inhibitory activity”. Besides, in data set [5], the “Effect on LPS-induced IL-1β mRNA expression” value is given as “did not display inhibitory activity”.
